Laboratory results taken from patent US10883083B2, “Tissue-engineered three-dimensional model for tumor analysis” (The Trustees of Columbia University in the City of New York, priority 2013, dated 2021).

System: ES cells (SK-N-MC) in Col 1-HA scaffold
Experiment: Blebbistatin treatment of bioengineered tumor: cell morphology and exosome size (NTA)
Format: cell-based, human
Details: blebbistatin-treated vs untreated controls, 3D setting
Procedure: To seed 3D Collagen 1-HA scaffolds, single-cell suspension of SK-N-MC cells was adjusted to the cell concentration of 1×10^6 cells/mL in a 50 ml Falcon tube. A total of 15 scaffolds were added to 30 mL of cell suspension, and the Falcon was set onto a rotary platform for 3 hours at 37° C./5% CO2. Cell seeded scaffolds were then transferred to non-treated wells in 12-multiwell plates (Nunc) and cultured in 2 mL of medium at 37° C./5% CO2. Cell numbers and were determined by Quant-iT PicoGreen dsDNA Assay Kit (Life technologies) according to the manufacturer's instructions. Exosome isolation and size analysis: Cells cultured in monolayers, aggregates and 3D scaffolds were washed with PBS twice and cultured in EMEM supplemented with 10% (v/v) Exosome-depleted FBS (SBI) and 1% penicillin/streptomycin for 12 h. The supernatants were collected and exosomes were isolated from cell culture media using the total exosome isolation kit (Invitrogen), according to the manufacturer's protocol. Exosomes from plasma samples were also isolated using the total exosome isolation kit (Invitrogen). The size distributions of exosomes were determined by Nanoparticle Tracking Analysis (NTA) using the Nanosight machine. To probe a possible mechanism underlying the observed effects of the tumor environment on exosome size, we modified the tension forces within the cells.

With `Cc1ccc2c(c1)C(=O)C1(O)CCN(c3ccccc3)C1=N2` (centres unmarked) [Blebbistatin] the “Cell morphology / cell aggregates” value was “partial disassembly of cell aggregates” and the Exosome size distribution was “shift of the exosome size distribution curve to higher values”.
